The text below walks through data of BindingDB's records for doi:10.1016/0006-2952(93)90073-6 (Janssen Research Foundation, 1993).

The assay deals with T1, 5-hydroxytryptamine receptor 1A (Homo sapiens, UniProt P08908).
T1 sequence (P08908 whole entry): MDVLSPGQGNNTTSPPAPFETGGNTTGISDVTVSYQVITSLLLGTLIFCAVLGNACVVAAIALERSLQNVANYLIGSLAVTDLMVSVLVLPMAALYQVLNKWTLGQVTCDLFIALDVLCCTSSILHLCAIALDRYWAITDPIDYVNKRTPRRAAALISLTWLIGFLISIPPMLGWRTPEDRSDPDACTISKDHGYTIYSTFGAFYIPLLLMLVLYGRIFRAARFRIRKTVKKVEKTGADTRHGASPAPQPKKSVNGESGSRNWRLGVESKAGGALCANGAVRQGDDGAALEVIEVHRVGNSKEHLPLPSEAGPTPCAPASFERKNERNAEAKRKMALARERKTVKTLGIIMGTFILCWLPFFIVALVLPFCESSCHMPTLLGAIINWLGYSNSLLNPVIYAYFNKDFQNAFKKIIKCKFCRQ
For the compound `CCN1CCCC1CNC(=O)c1cc(S(N)(=O)=O)ccc1OC` (configuration not stated) [N-[(1-ethylpyrrolidin-2-yl)methyl]-2-methoxy-5-sulfamoylbenzamide], the Ki – broadly, the equilibrium dissociation constant of an inhibitor or competing ligand from its target – was over 10000 nM.
As for `OC(CNCC(O)C1CCc2cc(F)ccc2O1)C1CCc2cc(F)ccc2O1` (configuration not stated) [CAS_99200-09-6], affinity was put at a Ki of 25.8 nM.
In the case of `Cc1nc2c(C)cccn2c(=O)c1CCN1CCC(c2noc3cc(F)ccc23)CC1` [CAS_129029-23-8] it was 13.9 nM.
The compound `CN1C[C@@H](NS(=O)(=O)N(C)C)C[C@@H]2c3cccc4c3c(cn4C)C[C@H]21` [MESULERGINE] returned an inhibition constant Ki of 197 nM.
For `O=c1ccc2[nH]cc(C3=CCNCC3)c2[nH]1` [CAS_127792-75-0] the value was 3750 nM; for `Cn1cc(C(F)(F)F)nc1-c1ccc(OCC(O)CNCCOc2ccc(O)c(C(N)=O)c2)cc1` (configuration not stated), 7360 nM.
For `COc1ccc(CN(CCN(C)C)c2ccccn2)cc1` the value was over 10000 nM.
